Source: the NIST ThermoML archive (doi:10.1016/j.jct.2019.06.022)

Assay: mn = molality of the nth substance listed, in mol/kg
Settings: 298.15 K, 101.3 kPa, Liquid; for binary diffusion coefficient: Taylor dispersion method; for mass density: Vibrating tube method

O=C([O-])c1ccccc1O.[Na+] [sodium salicylate] + O
Settings | binary diffusion coefficient [m2/s] | mass density [kg/m3]
m1 = 0.001004 | 1.06e-09 | 996.965
m1 = 0.002502 | 1.05e-09 | 997.145
m1 = 0.005026 | 1.04e-09 | 997.318
m1 = 0.007532 | 1.02e-09 | 997.434
m1 = 0.01004 | 1.02e-09 | 997.909
m1 = 0.05045 | – | 999.801
m1 = 0.1014 | – | 1003.01
